In patent US20100160321A1, “IMIDAZOLINONE AND HYDANTOINE DERIVATIVES AS NOVEL INHIBITORS OF HISTONE DEACETYLASE” (priority 2005, published 2010):

Experiments:
[1] = target: histone deacetylase (HeLa nuclear extracts); test: In vitro assay for inhibition of histone deacetylase (HDAC Fluorescent Activity Assay, Fluor de Lys); format: biochemical; settings: HeLa nuclear extracts 60 μg/ml, 75 μM Fluor de Lys substrate, example C.1
Excerpt: The in vitro assay for inhibition of histone deacetylase (see example C.1) measures the inhibition of HDAC enzymatic activity obtained with the compounds of formula (I).
The HDAC Fluorescent Activity Assay/Drug Discovery Kit of Biomol (cat.No: AK-500-0001) was used. The HDAC Fluorescent Activity Assay is based on the Fluor de Lys (Fluorogenic Histone deAcetylase Lysyl) substrate and developer combination. The Fluor de Lys substrate, comprises an acetylated lysine side chain. Deacetylation of the substrate sensitizes the substrate so that, in the second step, treatment with the Fluor de Lys developer produces a fluorophore.
HeLa nuclear extracts (supplier: Biomol) were incubated at 60 μg/ml with 75 μM of substrate. The Fluor de Lys substrate was added in a buffer containing 25 mM Tris, 137 mM NaCl, 2.7 mM KCl and 1 mM MgCl2.6H2O at pH 7.4. After 30 min, 1 volume of the developer was added. The fluorophore was excited with 355 nm light and the emitted light (450 nm) was be detected on a fluorometric plate reader.
For each experiment, controls (containing HeLa nuclear extract and buffer), a blank incubation (containing buffer but no HeLa nuclear extract) and samples (containing compound dissolved in DMSO and further diluted in buffer and HeLa nuclear extract) were run in parallel. In first instance, compounds were tested at a concentration of 10^−5M. […] All sample were tested 4 times. In each test the blank value was subtracted from both the control and the sample values. The control sample represented 100% of substrate deactylation. For each sample the fluorescence was expressed as a percentage of the mean value of the controls. […] Herein the effects of test compounds are expressed as pIC50 (the negative log value of the IC50-value) (see Table F-3).

[2] = system: human A2780 ovarian carcinoma cells; test: Antiproliferative activity on A2780 cells (MTT); format: cell-based; settings: 96 h, four days of incubation, example C.2, read-out: Cellular activity pIC50 (converted)
Method: All compounds tested were dissolved in DMSO and further dilutions were made in culture medium. Final DMSO concentrations never exceeded 0.1% (v/v) in cell proliferation assays. Controls contained A2780 cells and DMSO without compound and blanks contained DMSO but no cells. MTT was dissolved at 5 mg/ml in PBS.
Cells were routinely kept as monolayer cultures at 37° C. in a humidified 5% CO2 atmosphere. Cells were passaged once a week using a trypsin/EDTA solution at a split ratio of 1:40. All media and supplements were obtained from Life Technologies. Cells were free of mycoplasma contamination as determined using the Gen-Probe Mycoplasma Tissue Culture kit (supplier: BioMerieux).
Cells were seeded in NUNC™ 96-well culture plates (Supplier: Life Technologies) and allowed to adhere to the plastic overnight. Densities used for plating were 1500 cells per well in a total volume of 200 μl medium. After cell adhesion to the plates, medium was changed and drugs and/or solvents were added to a final volume of 200 μl. Following four days of incubation, medium was replaced by 200 μl fresh medium and cell density and viability was assessed using an MTT-based assay. To each well, 25 μl MTT solution was added and the cells were further incubated for 2 hours at 37° C. The medium was then carefully aspirated and the blue MTT-formazan product was solubilized by addition of 25 μl glycine buffer followed by 100 μl of DMSO. […] Within an experiment, the results for each experimental condition are the mean of 3 replicate wells. […] For each experiment, controls (containing no drug) and a blank incubation (containing no cells or drugs) were run in parallel. The blank value was subtracted from all control and sample values. For each sample, the mean value for cell growth (in absorbance units) was expressed as a percentage of the mean value for cell growth of the control. […] Herein the effects of test compounds are expressed as pIC50 (the negative log value of the IC50-value)(see Table F-3).

Row | SMILES | Enzyme activity pIC50 [1] | IC50 [2] [nM] | melting point [°C]
1 | O=C(NO)c1cnc(N2CCC(CN3CCN(c4cccc5ccccc45)C3=O)CC2)nc1 [Compound 1] | 7.1 | 1000 | 
2 | O=C(NO)c1cnc(N2CCC(Cn3ccn(-c4ccc(Oc5ccccc5)cc4)c3=O)CC2)nc1 [Compound 2] | 7.5 | 126 | 
3 | O=C(NO)c1cnc(N2CCC(Cn3ccn(-c4ccc(-c5ccccc5)cc4)c3=O)CC2)nc1 [Compound 3] | 7.8 | 79.4 | 
4 | O=C(NO)c1cnc(N2CCC(Cn3ccn(-c4ccc(F)cc4)c3=O)CC2)nc1 [Compound 4] | 7.6 | 631 | 
5 | N#Cc1ccc(N2C(=O)C(c3ccccc3)N(CC3CCN(c4ncc(C(=O)NO)cn4)CC3)C2=O)cc1 (centres unmarked) [Compound 5] | 7.1 | 631 | 187
6 | CC1C(=O)N(c2ccc(-c3ccccc3)cc2)C(=O)N1CC1CCN(c2ncc(C(=O)NO)cn2)CC1 (centres unmarked) [Compound 6] | 7.2 | 501 | 169
7 | O=C(NO)c1cnc(N2CCC(CN3CCN(c4ccc(Oc5ccccc5)cc4)C3=O)CC2)nc1 [Compound 10] | 7.2 | 2510 | 
8 | O=C(NO)c1cnc(N2CCC(CN3CCN(c4ccc(-c5ccccc5)cc4)C3=O)CC2)cn1 [Compound 11] | 7.3 | 631 | 
9 | O=C(NO)c1cnc(N2CCOC(Cn3ccn(-c4ccccc4)c3=O)C2)nc1 (centres unmarked) [Compound 12] | 7.5 | 631 | 
10 | COc1ccc(-n2ccn(CC3CN(c4ncc(C(=O)NO)cn4)CCO3)c2=O)cc1OC (centres unmarked) [Compound 13] | 7.3 | 794 | 
11 | Cc1cccc(-n2ccn(CC3CN(c4ncc(C(=O)NO)cn4)CCO3)c2=O)c1 (centres unmarked) [Compound 14] | 6.8 | 6310 | 
12 | O=C(NO)c1cnc(N2CCOC(Cn3ccn(-c4cccc(C(F)(F)F)c4)c3=O)C2)nc1 (centres unmarked) [Compound 15] | 7.3 | 1260 | 
13 | COc1cc(-n2ccn(CC3CN(c4ncc(C(=O)NO)cn4)CCO3)c2=O)cc(OC)c1OC (centres unmarked) [Compound 16] | 7.2 | 1260 | 
14 | COc1ccc(-n2ccn(CC3CN(c4ncc(C(=O)NO)cn4)CCO3)c2=O)cc1 (centres unmarked) [Compound 18] | 7.2 | 1260 | 
15 | O=C(NO)c1cnc(N2CCOC(Cn3ccn(-c4ccc(F)cc4)c3=O)C2)nc1 (centres unmarked) [Compound 20] | 7.3 | 501 | 
16 | O=C(NO)c1cnc(N2CCOC(Cn3ccn(-c4cccc(F)c4)c3=O)C2)nc1 (centres unmarked) [Compound 21] | 7.4 | 501 | 
17 | Cc1ccc(-n2ccn(CC3CN(c4ncc(C(=O)NO)cn4)CCO3)c2=O)cc1 (centres unmarked) [Compound 22] | 7.2 | 5010 | 
18 | O=C(NO)c1cnc(N2CCC(Cn3ccn(-c4cccc(C(F)(F)F)c4)c3=O)CC2)nc1 [Compound 23] | 7.2 | 1260 | 
19 | O=C(NO)c1cnc(N2CCC(Cn3ccn(-c4ccc5c(c4)OCCOCCOCCOCCO5)c3=O)CC2)nc1 [Compound 24] | 7.4 | 631 | 
20 | COc1cc(-n2ccn(CC3CCN(c4ncc(C(=O)NO)cn4)CC3)c2=O)cc(OC)c1OC [Compound 25] | 7.4 | 631 | 
21 | COc1cc(OC)cc(-n2ccn(CC3CCN(c4ncc(C(=O)NO)cn4)CC3)c2=O)c1 [Compound 26] | 7.4 | 501 | 
22 | COc1ccc(-n2ccn(CC3CCN(c4ncc(C(=O)NO)cn4)CC3)c2=O)cc1OC [Compound 27] | 7.5 | 631 | 
23 | COc1ccc(-n2ccn(CC3CCN(c4ncc(C(=O)NO)cn4)CC3)c2=O)cc1 [Compound 28] | 7.6 | 631 | 
24 | COc1cccc(-n2ccn(CC3CCN(c4ncc(C(=O)NO)cn4)CC3)c2=O)c1 [Compound 29] | 7.7 | 631 | 
25 | O=C(NO)c1cnc(N2CCC(Cn3ccn(-c4cccc(F)c4)c3=O)CC2)nc1 [Compound 30] | 7.5 | 631 | 
26 | Cc1ccc(-n2ccn(CC3CCN(c4ncc(C(=O)NO)cn4)CC3)c2=O)cc1 [Compound 31] | 7.7 | 631 | 
27 | O=C(NO)c1cnc(N2CCC(Cn3ccn(-c4ccccc4)c3=O)CC2)nc1 [Compound 32] | 6.6 | 1000 | 
28 | Cc1[nH]c2ccccc2c1CCn1ccn(CC2CCN(c3ncc(C(=O)NO)cn3)CC2)c1=O [Compound 35] | 7.9 | 501 | 246
29 | CC1C(=O)N(c2ccc(C#N)cc2)C(=O)N1CC1CCN(c2ncc(C(=O)NO)cn2)CC1 (centres unmarked) [Compound 36] | 7.0 | 1580 | 135
